From patent US12667608B2 (priority 2020, dated 2026)
Converted amounts (≈) assume the structure as drawn.

Columns and labels:
Assay in all cases: microbe, parasite or virus in culture
Assay type in all cases: cell-based
[1] = test system: Recombinant drug-resistant BCG Strain; settings: Mycobacterium tuberculosis variant bovis BCG, 672 h
Mtb H37Rv = settings: Mycobacterium tuberculosis, 672 h
M. bovis BCG = settings: Mycobacterium tuberculosis variant bovis BCG, 672 h

| SMILES | MIC [1] | MIC (Mtb H37Rv) | MIC (M. bovis BCG) |
| --- | --- | --- | --- |
| NCC[C@H](O)C(=O)N[C@@H]1C[C@H](N)[C@@H](O[C@H]2O[C@H](CN)[C@@H](O)[C@H](O)[C@H]2O)[C@H](O)[C@H]1O[C@H]1O[C@H](CO)[C@@H](O)[C@H](N)[C@H]1O [AMK, amikacin] | 5 µg/mL (≈ 8.54 µM) | 0.5 to 1 µg/mL (≈ 0.854 to 1.71 µM) | 0.5 µg/mL (≈ 0.854 µM) |
| CC(C)/N=c1\cc2n(-c3ccc(Cl)cc3)c3ccccc3nc-2cc1Nc1ccc(Cl)cc1 [CLA, clofazimine] | 0.5 µg/mL (≈ 1.06 µM) | 8 µg/mL (≈ 16.9 µM) | 0.25 µg/mL (≈ 0.528 µM) |
| CC[C@@H](CO)NCCN[C@@H](CC)CO [EMB, ethambutol] | 5 µg/mL (≈ 24.5 µM) | 0.5 µg/mL (≈ 2.45 µM) | 0.5 µg/mL (≈ 2.45 µM) |
| NNC(=O)c1ccncc1 [INH, isoniazid] | 0.06 µg/mL (≈ 0.438 µM) | 0.03 to 0.06 µg/mL (≈ 0.219 to 0.438 µM) | 0.1 µg/mL (≈ 0.729 µM) |
| C[C@H]1COc2c(N3CCN(C)CC3)c(F)cc3c(=O)c(C(=O)O)cn1c23 [LFX, levofloxacin] | 4 µg/mL (≈ 11.1 µM) | 0.5 µg/mL (≈ 1.38 µM) | 0.5 µg/mL (≈ 1.38 µM) |
| CC(=O)NC[C@H]1CN(c2ccc(N3CCOCC3)c(F)c2)C(=O)O1 [LZD, linezolid] | 0.03 µg/mL (≈ 0.0889 µM) | 0.25 µg/mL (≈ 0.741 µM) | 0.125 to 0.5 µg/mL (≈ 0.371 to 1.48 µM) |
| COc1c(N2C[C@@H]3CCCN[C@@H]3C2)c(F)cc2c(=O)c(C(=O)O)cn(C3CC3)c12 [MFX, moxifloxacin] | 4 µg/mL (≈ 9.96 µM) | 0.25 to 0.5 µg/mL (≈ 0.623 to 1.25 µM) | 0.5 µg/mL (≈ 1.25 µM) |
| O=[N+]([O-])c1cn2c(n1)OC[C@@H](OCc1ccc(OC(F)(F)F)cc1)C2 [PA-824, Pretomanid] | 0.25 µg/mL (≈ 0.696 µM) | 0.06 to 0.125 µg/mL (≈ 0.167 to 0.348 µM) | 0.25 µg/mL (≈ 0.696 µM) |
| Nc1ccc(C(=O)O)c(O)c1 [PAS, para-aminosalicylic acid] | 0.25 µg/mL (≈ 1.63 µM) | 0.3 to 1 µg/mL (≈ 1.96 to 6.53 µM) | 0.25 µg/mL (≈ 1.63 µM) |
| CCCc1cc(C(N)=S)ccn1 [PRO, prothionamide] | 64 µg/mL (≈ 355 µM) | 0.5 µg/mL (≈ 2.77 µM) | 0.25 µg/mL (≈ 1.39 µM) |
| CO[C@H]1/C=C/O[C@@]2(C)Oc3c(C)c(O)c4c(O)c(c(/C=N/N5CCN(C)CC5)c(O)c4c3C2=O)NC(=O)/C(C)=C\C=C\[C@H](C)[C@H](O)[C@@H](C)[C@@H](O)[C@@H](C)[C@H](OC(C)=O)[C@@H]1C [RIF, rifampicin] | 0.5 µg/mL (≈ 0.608 µM) | 0.25 µg/mL (≈ 0.304 µM) | 0.032 µg/mL (≈ 0.0389 µM) |
| [H]/N=C(/N)N[C@H]1[C@H](O)[C@@H](O)[C@H](O[C@@H]2O[C@@H](C)[C@](O)(C=O)[C@H]2O[C@@H]2O[C@@H](CO)[C@H](O)[C@@H](O)[C@@H]2NC)[C@@H](N/C(N)=N\[H])[C@@H]1O [STR, streptomycin] | 64 µg/mL (≈ 110 µM) | 1 µg/mL (≈ 1.72 µM) | 0.25 µg/mL (≈ 0.43 µM) |
| COc1nc2ccc(Br)cc2cc1[C@@H](c1ccccc1)[C@@](O)(CCN(C)C)c1cccc2ccccc12 [TMC 207, bedaquiline] | 0.03 µg/mL (≈ 0.054 µM) | 0.03 to 0.12 µg/mL (≈ 0.054 to 0.216 µM) | 0.03 µg/mL (≈ 0.054 µM) |
